Measured values as given in US20260355154A1, “IMPLANTS, COMPOSITIONS, AND METHODS FOR TREATING RETINAL DISEASES AND DISORDERS” (Osanni Bio, Inc., priority 2024, published 2026).
Read-outs that look alike come from different tables or passages of the source.

Columns and labels:
eye = conditions: applied topically in the eye; Grant, Toxicology of the Eye; cited from earlier work
[1] = cited from earlier work
[2] = system: human embryonic stem-cell derived retinal pigmented epithelium (hESC-RPE); assay: Drusen in vitro assay: APOE/APOE4 deposition induced by 5% human serum; assay type: cell-based; conditions: for minimal effective concentration: Embryonic stem cell, hESC-RPE, 24 h pre-incubation, then 48 h with 5% human serum
Protocol: (§1) Retinal Pigmented Epithelium Cell Culture: Human embryonic stem-cell derived retinal pigmented epithelium (hESC-RPE) were cultured on Transwell inserts for at least 4 weeks in serum-free XVIVO culture medium. After 4 weeks, polygonal, pigmented monolayers of hESC-RPE were visualized by phase contrast and bright-field microscopy, indicating appropriately matured RPE cells. Drusen assay experiments were performed after the initial 4-week maturation period.
Drusen Assay: Matured hESC-RPE monolayers were incubated with 5% complement competent human serum (HS) for 48 hours to elicit Drusen formation. After the 48 hour HS incubation period, hESC-RPE monolayers (whole inserts) were fixed with 4% paraformaldehyde for 10 minutes at room temperature. Following fixation, inserts were individually removed from plates and cut out of their holders using a scalpel yielding individual membranes with hESC-RPE monolayers. Membranes were transferred to 24-well plates for storage in phosphate buffered saline with calcium and magnesium (PBS+/+).
Drusen Assay with Atorvastatin Treatment: Matured hESC-RPE inserts were pre-incubated with varying concentrations of atorvastatin (ranging from […]) in both the top and bottom insert compartments for 24 hours in an incubator set at 37 °C with 5% CO2. On the following day, medium was exchanged with fresh culture medium containing atorvastatin and 5% HS and incubated for an additional 48 hours in an incubator set at 37 °C with 5% CO2. After 48 hour incubation period, inserts were fixed and processed for antibody staining.
Fixed membranes were incubated with block solution containing 1% bovine serum albumin (BSA) and 0.1% Triton X in PBS+/+ for 1 hr at room temperature. After the block incubation period, membranes were incubated overnight at 4 °C with primary antibody solution containing 1% BSA and goat anti-APOE4 antibody (1:250) and mouse anti-C5b9 antibody (1:250). On the following day, membranes were washed thrice for 10 min with PBS+/+ and incubated with secondary antibody solution containing 1% BSA and AlexaFluor donkey anti-goat 546 (1:200) and AlexaFluor donkey anti-mouse 488 (1:200) for 1 hr at room temperature in the dark. Following secondary antibody incubation period, membranes were washed thrice for 10 min with PBS+/+ and counterstained with Hoechst solution (1:1000) in PBS+/+ for 10 min at room temperature. Membranes were then transferred to microscope slides and mounted using ProLong Gold anti-fade solution and coverslips. Slides were imaged using a Leica SP8 Scanning Resonant Confocal Microscope using identical settings and laser power. At least 3 fields of view were collected per sample.
Image quantification and figure preparation: Fiji (Image J) software was used for processing all the images. All images were processed with the parameters described below: Contrast adjustment—the value of contrast for the APOE4 channel was set to 90-230 to improve the accuracy of object observation. Thresholding—the cutoff value of the threshold for the APOE4 channel was set as 100 to 255 to identify the pixels as real expressions. Size-Particles with an area larger than 1.5 A.U. were counted as true APOE4 expressions to minimize the likelihood of false positives in the image. Measurements, including deposit counts and the total area, were then exported as a .csv file for analysis. All images were taken in triplicate per treatment. Results are presented as mean±SEM and were graphed using Graph Pad PRISM v6. Statistical significance was established using one-way ANOVA tests followed by Tukey's multiple comparisons test.

[3] = system: human embryonic stem-cell derived retinal pigmented epithelium (hESC-RPE); assay: Complement activity: C5b-9 immunostaining in human serum-treated hESC-RPE; assay type: cell-based; conditions: increasing concentrations of atorvastatin; 5% human serum; FIG. 4
Protocol: as §1
Drusen Assay: Matured hESC-RPE monolayers were incubated with 5% complement competent human serum (HS) for 48 hours to elicit Drusen formation. After the 48 hour HS incubation period, hESC-RPE monolayers (whole inserts) were fixed with 4% paraformaldehyde for 10 minutes at room temperature. Following fixation, inserts were individually removed from plates and cut out of their holders using a scalpel yielding individual membranes with hESC-RPE monolayers. Membranes were transferred to 24-well plates for storage in phosphate buffered saline with calcium and magnesium (PBS+/+). […]
Image quantification and figure preparation: Fiji (Image J) software was used for processing all the images. […] Size-Particles with an area larger than 1.5 A.U. were counted as true APOE4 expressions to minimize the likelihood of false positives in the image. […]

Compound | eye damage on topical application (eye) | in vivo metabolism ([1]; in vivo, Handbook of Pesticide Toxicology) | excretion ([1]; urine, after oxidation of benzyl alcohol to benzoic acid and conjugation with glucuronic acid) | excretion (minor route) ([1]; urine, to a lesser extent, benzoic acid conjugated with glycine) | minimal effective concentration ([2]; read-out: concentration from which APOE deposition area decreased (starting at)) [µM] | minimal effective concentration ([2]; read-out: concentration from which total counts of APOE deposits decreased (starting at)) [µM] | total counts of APOE deposits at higher ATV concentrations ([2]; higher ATV concentrations (above 123 nM), 5% human serum, 48 h) | APOE deposition area at higher ATV concentrations ([2]; higher ATV concentrations (above 370 nM), 5% human serum, 48 h) | APOE deposition (area) ([2]; increasing atorvastatin concentrations, 5% human serum, 48 h) | total counts of APOE deposition ([2]; increasing atorvastatin concentrations, 5% human serum, 48 h, FIG. 3) | expression of APOE4 per field of view ([2]; increasing concentrations of atorvastatin, 5% human serum, FIG. 3) | C5b-9 expression / C5b-9 positive puncta per field of view [3]
O=C(OCc1ccccc1)c1ccccc1 [Benzyl benzoate] | no damage | hydrolyzed to benzoic acid and benzyl alcohol | excreted in the urine as benzoylglucuronic acid | excreted in the urine as hippuric acid |  |  |  |  |  |  |  | 
CC(C)c1c(C(=O)Nc2ccccc2)c(-c2ccccc2)c(-c2ccc(F)cc2)n1CC[C@@H](O)C[C@@H](O)CC(=O)O [Atorvastatin, atorvastatin] |  |  |  |  | 0.37 | 0.123 | nearly complete elimination | nearly complete elimination | reduced APOE deposition dose-dependently | reduced the total counts of APOE deposition dose-dependently | decreased expression of APOE4 | reduces APOE4 and C5b-9 expression
